# Assay results published in patent US9649324B2, “Use of tylvalosin as antiviral agent” (ECO ANIMAL HEALTH LIMITED, priority 2006, dated 2017).
# Tests used:
# [1] = tested on: VR2332 (US strain of PRRSV); test: VR2332 (US strain of PRRSV) entry assay in MA104 cells (Example 10); settings: 4 h pretreatment, moi 10, overnight
# PRRSV = settings: has been shown; cited from earlier work
# [2] = tested on: chicken white blood cells; test: Intracellular accumulation in chicken white blood cells; assay type: in vitro ADME; settings: chicken white blood cells, 10 μg/mL
# Experimental: (§1) Pig blood was collected in Heparin-coated BD vacutainers (6). 20 mL of blood and 30 mL of phosphate buffered saline (PBS) were mixed in a 50 mL conical centrifuge tube. This was repeated in order to obtain 3 such tubes. The mixtures were centrifuged for 10 min at 2050×g. The white blood cells, together with some red blood cells below, were harvested into a 50 mL conical centrifuge tube. PBS was added to about 50 mL. A 63% solution of Percoll was made as follows: 6.3 mL Percoll (Sigma), 1.0 mL 1.5 M NaCl, 2.7 mL H2O. 10 mL of 63% Percoll was added to each of two 50 mL conical centrifuge tubes. 25 mL of the resuspended white blood cells were carefully layered on top of the each of the Percoll solutions. A sharp interface was produced. The material was centrifuged at 3000×g for 10 min. […] The white blood cells were harvested in PBS (50 mL) and centrifuged at 500×g for 10 min. The cell pellet was resuspended in medium (Glasgow minimum essential medium containing penicillin and streptomycin). A viable cell count was made using trypan blue. The same method used for isolation of pig WBCs was used for the chicken WBCs, with the exception that heparin (100 I.U./mL) was prepared and mixed with an equal volume of chicken whole blood.
# All tubes were placed on a rotary mixing machine, at 37° C. Supernatant and cell samples were harvested at the times described in the figure legends. Duplicate samples were used for each antibiotic for each time point.
# (§2) All the supernatant and cell samples were transported frozen (at approximately −20° C.) to York Bioanalytical Solutions (York, England) for analysis. Briefly, 0.25 g of buffer (RPMI medium containing 10% FCS) was weighed into a polypropylene tube. A 50 μL volume of the appropriate working solution was added to the quality control (QC) samples. Methanol (50 μL) was added to each blank sample used for preparation of calibration standards, recovery samples and reagent blanks. A 2.5 mL volume of 0.1 M phosphate buffer was added to each sample, vortex mixed for approximately 1 min and then centrifuged at 3220×g for 10 min at 4° C.
# (§3) For the liquid-liquid clean-up phase, an aliquot (100 μL) of the supernatant was transferred to a polypropylene tube. The pH was adjusted to pH 8-8.5 by the addition of 0.1 M NaOH, and vortex mixed. Ethyl acetate (5 mL) was added and after capping, the whole mixture was shaken for 10 min and then centrifuged at 3220×g for 10 min at 4° C.
# (§4) Ammonium acetate (20 mM; pH native)—formic acid, 1000:3, v/v (100 μL) was added to each well in a 2 mL polypropylene collection plate. An aliquot of the ethyl acetate mixture (100 μL) was transferred to the polypropylene collection plate and evaporated under nitrogen (40° C.) until the ethyl acetate was fully evaporated whilst the ammonium acetate remained. Methanol (100 μL) was added to each well, excluding the calibration standards.
# (§5) To each well containing a calibration standard, 100 μL of the appropriate calibration working solution was added. Samples were then vortex mixed for at least 10 min and submitted for liquid chromatography with tandem mass spectrometric analysis. The method stated was applicable to the samples of media (and the calibration standards and quality control samples).
# (§6) For the cells, the sample tubes were weighed, and 100 μL of acetonitrile was added. The samples were vortex mixed for 10 sec, then centrifuged at 10285×g at 4° C. for 5 min. The sample was transferred to a polypropylene tube. The original sample tube was washed with 0.1 M phosphate buffer (1 mL). This was transferred to the polypropylene tube. A second wash of 1 mL was made, then a final wash of 0.5 mL. The polypropylene tube was now at the same stage as the end of the liquid extraction, but with the cells present rather than media. This was then taken through the sample preparation as described above. […]
# LLC-PK1 cells = test: Intracellular accumulation in pig kidney epithelial cells; assay type: in vitro ADME; settings: LLC-PK1, 10 μg/mL
# Experimental: LLC-PKI cells in 6 cm^2 plastic tissue culture dishes were incubated with 10 μg/mL of the different macrolides. Cells and medium were harvested as described above at 30, 75 and 120 min.
# as §2, §3, §4, §5
# (§7) For the cells, the sample tubes were weighed, and 100 μL of acetonitrile was added. The samples were vortex mixed for 10 sec, then centrifuged at 10285×g at 4° C. for 5 min. The sample was transferred to a polypropylene tube. The original sample tube was washed with 0.1 M phosphate buffer (1 mL). This was transferred to the polypropylene tube. A second wash of 1 mL was made, then a final wash of 0.5 mL. The polypropylene tube was now at the same stage as the end of the liquid extraction, but with the cells present rather than media. This was then taken through the sample preparation as described above. The original sample tubes were allowed to dry (i.e. any remaining solvent evaporated off) and were then reweighed to determine the weight of cells in the sample, to allow the concentration per gram of cells to be determined.
# HRT-18 cells = test: Intracellular accumulation of macrolides in HRT-18 cells; assay type: in vitro ADME, human; settings: HRT-18 cells, 10 μg/mL antibiotic
# Experimental: HRT-18 cells, in 6 cm tissue cultures dishes, were incubated in the presence of 0.5, 5 or 50 μg/mL tylvalosin. After 4 h, two dishes for each tylvalosin concentration and two dishes without antibiotic were removed from the incubator. A sample of medium (about 1 mL) was removed, placed in a labelled Eppendorf tube and stored at −20° C. The rest of the medium was then removed. Each of the cell monolayers was washed twice in PBS, using approximately 5 mL for each wash. The plunger from a 2 mL plastic syringe was used to gently scrape off the cells. PBS (500 μL) was added to the dish and the cells gently removed into this medium, using a micropipette. The sample was then placed in an Eppendorf tube and centrifuged at 8000×g in a bench centrifuge (Biofuge pico, Heraeus instruments) for 13 sec. An obvious cell pellet formed. The supernatant was removed using a micropipette and the cell material was stored at −20° C. in a labelled Eppendorf tube. After approximately 24 h the remaining tissue culture dishes were removed from the incubator and treated as described above for the 4 h samples. All the samples, including the 4 h samples, were then stored at −70° C.
# HRT-18 cells were prepared as described above and used at passage 42. Stock solutions of antibiotics (either tylvalosin, tylosin or tilmicosin) were diluted in growth media and 10 μg/mL each antibiotic was added to the confluent cell monolayers. The cells were incubated at 37° C. in a 5% CO2 atmosphere for either 4 h or 24 h. The media and cells were harvested and tested for antibiotic, as described above.
# as §2, §3, §4, §5, §6
# pig white blood cells = test: Intracellular accumulation in pig white blood cells; assay type: in vitro ADME
# Experimental: as §1
# Cells were incubated with 10 mg/mL of each antibiotic. All tubes were placed on a rotary mixing machine, at 37° C. Supernatant and cell samples were harvested at the times described in the figure legends. Duplicate samples were used for each antibiotic for each time point.
# as §2, §3, §4, §5, §6
# Caco-2 cells = test: Intracellular accumulation and trans-epithelial transport in polarised Caco-2 cells; assay type: in vitro ADME, human; settings: Caco-2, 10 μg/mL, apical administration
# Experimental: Caco-2 cells were seeded at a density of 0.8×10^6 cells per well of a Transwell Clear filter 6 well plate, 0.4 μm pore size. The cells were incubated with 2 mL medium in both apical and basolateral chambers. This medium was replaced every 2 days for 10-14 days. Transepithelial resistance was measured using Millicell ERS apparatus (Millipore) at day 7, 10 and/or 14 in order to identify when the cells had become polarised. Readings of >1000 Ω were indicative of polarised cells. […]
# as §2, §3, §4, §5, §7
smiles,measurement,setting,value
"CC[C@H]1OC(=O)C[C@@H](O)[C@H](C)[C@@H](O[C@@H]2O[C@H](C)[C@@H](O)[C@H](N(C)C)[C@H]2O)[C@@H](CCN2C[C@H](C)C[C@H](C)C2)C[C@@H](C)C(=O)/C=C/C(C)=C/[C@@H]1CO[C@@H]1O[C@H](C)[C@@H](O)[C@@H](OC)[C@H]1OC (single isomer, unassigned) [tilmicosin, reference compound]",inhibition of VR2332 infection,[1],partial inhibition
same,effect on PRRSV,PRRSV,effective
same,average intracellular concentration,[2]; 15 min,37.1 μg/mg cells
same,intracellular concentration,[2]; 60 min,71.3 μg/mg cells
same,average intracellular concentration,LLC-PK1 cells; 75 min,4.98 μg/mg cells
same,intracellular:extracellular ratio,LLC-PK1 cells; 120 min,1.7
same,average intracellular concentration,HRT-18 cells; 4 h,7.24 μg/mg cells
same,intracellular:extracellular ratio,HRT-18 cells; 4 h,1.32 fold
same,average intracellular concentration,HRT-18 cells; 24 h,32.45 μg/mg cells
same,intracellular:extracellular ratio,HRT-18 cells; 24 h,4.64 fold
same,toxicity in cell culture assays of antiviral potency,cell culture,much more toxic than tylvalosin
same,average intracellular concentration,pig white blood cells; 10 min,31.25 μg/mg cells
same,average intracellular:extracellular ratio (IC:EC),pig white blood cells; 10 min,4.33
same,average intracellular:extracellular ratio (IC:EC),"pig white blood cells; 10 min, listed as Tilmicosin",4
same,intracellular concentration,pig white blood cells; 20 min,36 μg/mg cells
same,average intracellular concentration,Caco-2 cells; 120 min,8.6 μg/mg cells
same,average intracellular concentration,Caco-2 cells; 240 min,16.05 μg/mg cells
same,basolateral chamber content as average % of the apical chamber value,Caco-2 cells; 240 min,1.08%
same,intracellular:extracellular ratio (fold concentration),Caco-2 cells; 240 min,2.5 fold
